These results are taken from patent US9291619B2, “Method for detecting non-transferrin bound iron” (Yissum Research Development Company of the Hebrew …, priority 2011, dated 2016).

Structures can show the parent of a compound that is named as a salt. A value given as a limit tells only on which side of the number the result lay.

Common to all, as to format: biochemical, human
A short description of experiment [1]: DCI (directly chelatable iron) assay with fluorescein-DFO. The following applies: for effect of added serum component on DCI values: added to thalassemia sera. The text has this:
DCI determination. The DCI assay (directly chelatable iron) was used for sample analysis of labile iron by assessing its binding to fluorescein-DFO (Table 1) with a fluorescence plate reader or adapted for flow cytometry using as analytical probe fluorescein and DFO covalently coupled to chemically modified polystyrene beads (Spherotec Inc., Lake Forest, Ill., USA) (and an Eclipse instrument (iCyt, Champaign, Ill., USA) (Breuer et al, to be published elsewhere). In tests of the effect of NTA on DCI determination, NTA was added from a stock solution directly to the assay reagents. In experiments testing the effects of various additives on DCI, 20 μl of the additives dissolved in HBS were mixed with 20 μl of serum samples and the combined mixture (40 μl) was used in the assay. Control samples and iron standards were similarly diluted with HBS. In previous publications the term DCI has always indicated the assay format without NTA. In the present work the two formats of the
DCI assay are designated DCI (−) (without NTA) and DCI (+) (with 0.1 mM NTA).
For comparing eLPI with NTBI, the present inventors have employed an alternative assay for NTBI, termed directly-chelatable iron or DCI (FIG. 2, lower panel). Unlike LPI and eLPI which measure iron redox activity, DCI measures the accessibility of NTBI to a fluorescent, high-affinity chelator probe (fluorescein-DFO). […] This was confirmed by testing 22 TM sera for DCI without and with 0.1 mM NTA. An average increase of 0.14±0.13 μM was obtained in the presence of NTA (Breuer, W. and Cabantchik, Z. I, unpublished observations). The concentration of NTA in the DCI assay had to be limited to 0.1 mM to avoid contributions from holo-Tf-iron. Release of iron from holo-Tf by various carboxylate ligands such as NTA in combination with DFO has been documented previously. […] The present inventors tentatively attribute the exogenous albumin-mediated reduction of DCI to the binding of the fluorescein moiety of fluorescein-DFO to one of purified-albumin's hydrophobic binding sites, leading to a partial loss of sensitivity to quenching of the fluorescent chelator by iron. As the majority of such sites is normally occupied in plasma, their interference with the above assay should be minor

Experiment [2] in a line: eLPI assay (LPI assay with added NTA). The following applies: for serum concentration of chelator required for reducing eLPI by 2 μM: 2 hr incubation with thalassemia serum at room temperature, eLPI assay (0.5 mM NTA). The procedure: (§1) LPI determination, The LPI (Labile iron in plasma) assay was used as described previously or in the presence of NTA added from a concentrated solution. In experiments testing the effects of various additives on LPI, 20 μl of the additives dissolved in HBS (HEPES buffered saline composed of 20 mM HEPES, 150 mM NaCl, pH 7.4) were mixed with 20 μl of serum. Control samples and iron standards were similarly diluted with HBS. LPI assays without added NTA (‘redox-active LPI’) are designated “LPI” and LPI assays with added NTA (0.5 mM unless stated otherwise) are designated “eLPI”.
As the iron-mobilizing effect of NTA on NTBI has been previously shown to be dependent on the NTA concentration, the effect of increasing NTA concentrations on LPI levels in 9 representative sera: 7 from thalassemia patients and 2 from normal individuals (FIG. 1) was assessed. […] The detected LPI signal reached maximum levels at 0.1 mM NTA in sera with LPI <1 μM and at 0.5 mM NTA in thalassemic sera with LPI >1 μM. Control sera […] remained LPI-negative at all tested concentrations of NTA, a finding corroborated in LPI tests carried out with 0.5 mM NTA on >100 sera from normal individuals (data not shown). The same values of LPI were obtained when sera were assayed with 0.5 mM NTA present in the final assay solution or when sera were preincubated with NTA for 1 hr prior to 10-fold dilution with assay solution lacking NTA. Based on the relatively fast (within minutes) and distinct extraction/mobilization of LPI components by moderate NTA treatment depicted in FIG. 1, a modality of the original LPI assay by incorporating 0.5mM NTA as extracting/mobilizing agent was adopted and referred to as enhanced LPI (eLPI).

Experiment [3] is described as follows: LPI (labile plasma iron) assay without NTA. The following applies: for serum concentration of chelator required for reducing LPI by 2 μM: 2 hr incubation with thalassemia serum at room temperature, LPI assay without NTA; for effect of added serum component on measured LPI values: added to sera from 6 thalassemic patients, citrate 0.15 mM, albumin 10 mg/ml, uric acid 0.5 mM. The procedure: Determination of LPI and DCI. The properties of the assays used in this study in their different modalities are compiled in Table 2, below.
as §1
Measurements of LPI were originally designed for the detection of labile forms of iron in native human plasma or serum. The purpose was to assess if those labile forms could serve as indicators of impending tissue iron overload and as direct targets of chelation, on the basis that they should be comprised of chemical forms that are distinguishable from the non-labile Tf-bound iron in that they are redox-active, exchangeable with other ligands and accessible to chelators. This led to simple and sensitive assays that are performed under nearly physiological conditions, with 40 μM ascorbate added to initiate redox cycling of the iron and ensuing generation of reactive oxygen species (ROS) that are quantified by a fluorescence assay (Table 1). […] Thus, the assay avoids the inadvertent detection of transferrin-bound iron or labile iron-chelates. The detected LPI reflects the most labile or redox-active forms of NTBI in native plasma or serum, but not putative forms bound to non-labile ligands (e.g. citrate, albumin) In addition, the detection of LPI might be susceptible to masking by plasma antioxidants. […] For comparison, they also used a more direct assay for NTBI, in which DFO-chelatable iron is determined by its stoichiometric binding to the probe fluorescein-DFO in the presence and absence of an iron mobilizing agent.

In the case of `CC(=O)N(O)CCCCCNC(=O)CCC(=O)N(O)CCCCCNC(=O)CCC(=O)N(O)CCCCCN` [DFO, deferrioxamine], the “competition with fluorescein-DFO in preventing the detection of DCI” value in experiment [1] (DCI assays without and with NTA) is listed as “competed efficiently”. In addition, the “serum concentration of chelator required for reducing eLPI by 2 μM” value in experiment [2] was approximately 10 µM. Also, the “serum concentration of chelator required for reducing LPI by 2 μM” value in experiment [3] is less than 10 µM.

As to `Cc1c(O)c(=O)ccn1C` [DFP, 1,2-dimethyl-3-hydroxypyridin-4-one], the “concentration in the serum required to decrease DCI by 2 μM, compared with LPI and eLPI” value in experiment [1] (DCI assays without and with NTA, 2 hr incubation with thalassemia serum) is “markedly greater”. In experiment [2], the “serum concentration of chelator required for reducing eLPI by 2 μM” value was approximately 75 µM. The “serum concentration of chelator required for reducing LPI by 2 μM” value in experiment [3] is approximately 25 µM.

For `O=C(O)CC(O)(CC(=O)O)C(=O)O` [citrate, sodium citrate], in experiment [1], the “effect of added serum component on DCI values” was “Neither citrate nor uric acid significantly affected DCI values”. In addition, in experiment [3], the “effect of added serum component on measured LPI values” is listed as “significantly attenuated”.

Consider `O=c1[nH]c(=O)c2[nH]c(=O)[nH]c2[nH]1` [uric acid], for which the “effect of added serum component on DCI values” in experiment [1] is “Neither citrate nor uric acid significantly affected DCI values”. Further, the “effect of added serum component on measured LPI values” in experiment [3] was “significantly attenuated”.

Consider “iron-saturated Tf: human apo-Tf saturated with iron (ferrous ammonium sulfate), dialyzed”, for which the “effect of added serum component on eLPI values” in experiment [2] (1 mg/ml added to 6 thalassemia sera in the presence of NTA) is “no significant effect”.
